Molecules are shown by their SMILES. Some results are limits rather than exact numbers.

One assay deals with A549. As to the kind of experiment: Antiproliferative activity against human A549 cells after 72 hrs by CCK-8 assay. The conditions noted are these: A549, 72 h. The assay is classed as functional, cell-based.
Consider `COc1ccc(-c2oc3cc(OC)c(F)cc3c2C(=O)c2cc(OC)c(OC)c(OC)c2)cc1`, for which the 50% inhibitory concentration (IC50) – broadly, the concentration that inhibits the measured activity by half – was found to be 6.87 µM.
Still for that read-out and setting: for `CCOc1ccc(-c2oc3cc(OC)ccc3c2C(=O)c2cc(OC)c(OC)c(OC)c2)cc1` the value was 1.37 µM.
Same read-out and setting: for `COc1ccc(/C=C\c2cc(OC)c(OC)c(OC)c2)cc1O` [COMBRETASTATIN A4] the value was 5.99 µM; for `COc1ccc(/C=C\c2cc(OC)c(OC)c(OC)c2)cc1OP(=O)(O)O` [FOSBRETABULIN DISODIUM], 0.4 µM.

Test system in the next assay: not listed separately
As to the kind of experiment: Inhibition of pig brain tubulin polymerization by spectrophotometric analysis.
Details: not given
Further details: species or system Sus scrofa.
Compound `COc1ccc(-c2oc3cc(OC)c(F)cc3c2C(=O)c2cc(OC)c(OC)c(OC)c2)cc1` yielded an IC50 of over 200 µM.
On the same count and under the same terms, the same measure for `CCOc1ccc(-c2[nH]c3cc(OC)ccc3c2C(=O)c2cc(OC)c(OC)c(OC)c2)cc1`: over 200 µM; for `CCOc1ccc(-c2oc3cc(OC)ccc3c2C(=O)c2cc(OC)c(OC)c(OC)c2)cc1`: 0.86 µM.
The same measure, in the same setting: for `COc1ccc(/C=C\c2cc(OC)c(OC)c(OC)c2)cc1O` [COMBRETASTATIN A4] the value was 0.88 µM; for `COc1ccc(/C=C\c2cc(OC)c(OC)c(OC)c2)cc1OP(=O)(O)O` [FOSBRETABULIN DISODIUM], 4.79 µM.

In the next assay the test system is HeLa. The assay is described as follows: Antiproliferative activity against human HeLa cells after 72 hrs by CCK-8 assay.
Details: not given
In kind it is functional, cell-based. Background: Tetrazolium assays rely on reduction of a dye to a coloured formazan, in cell work by metabolically active cells.
Compound `COc1ccc(-c2oc3cc(OC)c(F)cc3c2C(=O)c2cc(OC)c(OC)c(OC)c2)cc1` displayed an IC50 of 19.1 µM. This counts as double-digit micromolar.
`CCOc1ccc(-c2oc3cc(OC)ccc3c2C(=O)c2cc(OC)c(OC)c(OC)c2)cc1` gave an IC50 of 8.99 µM.
Turning to `COc1ccc(/C=C\c2cc(OC)c(OC)c(OC)c2)cc1O` [COMBRETASTATIN A4], inhibition was half-maximal at 11.3 µM (IC50).
The same measure, in the same setting: the same measure for `COc1ccc(/C=C\c2cc(OC)c(OC)c(OC)c2)cc1OP(=O)(O)O` [FOSBRETABULIN DISODIUM]: 0.56 µM.

Another assay relates to MGC-803. As to the kind of experiment: Antiproliferative activity against human MGC803 cells after 72 hrs by CCK-8 assay. In kind it is functional, cell-based. The following applies: MGC-803, 72 h.
In turn, `COc1ccc(-c2oc3cc(OC)c(F)cc3c2C(=O)c2cc(OC)c(OC)c(OC)c2)cc1` registered an IC50 of 47.3 µM. In other words, the double-digit micromolar range.
Still for that read-out and setting: for `CCOc1ccc(-c2oc3cc(OC)ccc3c2C(=O)c2cc(OC)c(OC)c(OC)c2)cc1` the value was 9.97 µM; for `COc1ccc(/C=C\c2cc(OC)c(OC)c(OC)c2)cc1O` [COMBRETASTATIN A4], 1.76 µM; for `COc1ccc(/C=C\c2cc(OC)c(OC)c(OC)c2)cc1OP(=O)(O)O` [FOSBRETABULIN DISODIUM], 0.47 µM.

Another assay deals with MCF7. The assay is described as follows: Antiproliferative activity against human MCF7 cells after 72 hrs by CCK-8 assay. The conditions noted are these: MCF7, 72 h. In kind it is functional, cell-based.
Take `COc1ccc(-c2oc3cc(OC)c(F)cc3c2C(=O)c2cc(OC)c(OC)c(OC)c2)cc1`: it took 6.49 µM to reach half-maximal inhibition (IC50).
The same measure, in the same setting: for `CCOc1ccc(-c2oc3cc(OC)ccc3c2C(=O)c2cc(OC)c(OC)c(OC)c2)cc1` the value was 0.91 µM; for `COc1ccc(/C=C\c2cc(OC)c(OC)c(OC)c2)cc1O` [COMBRETASTATIN A4], 0.67 µM; for `COc1ccc(/C=C\c2cc(OC)c(OC)c(OC)c2)cc1OP(=O)(O)O` [FOSBRETABULIN DISODIUM], 0.96 µM.

Another assay relates to HCT-116. The assay is described as follows: Antiproliferative activity against human HCT116 cells after 72 hrs by CCK-8 assay. In kind it is functional, cell-based. The conditions noted are these: HCT-116, 72 h.
For `COc1ccc(-c2oc3cc(OC)c(F)cc3c2C(=O)c2cc(OC)c(OC)c(OC)c2)cc1`, the IC50 is 78.2 µM.
The same measure, in the same setting: for `CCOc1ccc(-c2oc3cc(OC)ccc3c2C(=O)c2cc(OC)c(OC)c(OC)c2)cc1` the value was 12.6 µM.
The same measure, in the same setting: for `COc1ccc(/C=C\c2cc(OC)c(OC)c(OC)c2)cc1O` [COMBRETASTATIN A4] the value was 9 µM; for `COc1ccc(/C=C\c2cc(OC)c(OC)c(OC)c2)cc1OP(=O)(O)O` [FOSBRETABULIN DISODIUM], 0.24 µM.

The next assay concerns HepG2. The assay is described as follows: Antiproliferative activity against human HepG2 cells after 72 hrs by CCK-8 assay. The assay is classed as functional, cell-based. The conditions noted are these: HepG2, 72 h.
The compound `COc1ccc(-c2oc3cc(OC)c(F)cc3c2C(=O)c2cc(OC)c(OC)c(OC)c2)cc1` gave an IC50 of 4.75 µM.
With `CCOc1ccc(-c2oc3cc(OC)ccc3c2C(=O)c2cc(OC)c(OC)c(OC)c2)cc1`, inhibition was half-maximal at 1.31 µM (IC50).
Same read-out and setting: for `COc1ccc(/C=C\c2cc(OC)c(OC)c(OC)c2)cc1O` [COMBRETASTATIN A4] the value was 16 µM; for `COc1ccc(/C=C\c2cc(OC)c(OC)c(OC)c2)cc1OP(=O)(O)O` [FOSBRETABULIN DISODIUM], 0.27 µM.

Source of the values: ChEMBL document CHEMBL4257456, “Molecular modeling study, synthesis and biological evaluation of combretastatin A-4 analogues as anticancer agents and tubulin inhibitors” (Medchemcomm, 2018).
